Laboratory results published in paper PMC5218480 (PLoS ONE, 2017).

Test system: MV-4-11 cells
Assay: Gene expression microarray analysis (Affymetrix PrimeView) and GSEA
Format: cell-based, human
Set-up: RFU PODN (11730768_x_at) / Fold change /veh PODN (11730768_x_at) / RFU LINC00158 (11744669_a_at) / Fold change /veh LINC00158 (11744669_a_at) / RFU DUSP10 (11751237_a_at) / Fold change /veh DUSP10 (11751237_a_at) / RFU ID3 (11757404_x_at) / Fold change /veh ID3 (11757404_x_at) / RFU PLEKHG5 (11737974_s_at) / Fold change /veh PLEKHG5 (11737974_s_at) / RFU LRRC4B (11730491_at) / Fold change /veh LRRC4B (11730491_at) / RFU GIMAP4 (11747438_a_at) / Fold change /veh GIMAP4 (11747438_a_at) / RFU KRT8 (11758183_x_at) / Fold change /veh KRT8 (11758183_x_at) / RFU CNN1 (11734310_a_at) / Fold change /veh CNN1 (11734310_a_at) / RFU VPS37D (11726825_at) / Fold change /veh VPS37D (11726825_at) / RFU C10orf10 (11716522_x_at) / Fold change /veh C10orf10 (11716522_x_at) / RFU KIR2DL2 /// KIR2DL4 /// KIR2DL5A /// KIR2DL5B /// KIR2DS1 /// KIR2DS2 /// KIR2DS3 /// KIR2DS4 /// KIR3DL3 /// KIR3DL3 /// KIR3DS1 (11738374_at) / Fold change /veh KIR2DL2 /// KIR2DL4 /// KIR2DL5A /// KIR2DL5B /// KIR2DS1 /// KIR2DS2 /// KIR2DS3 /// KIR2DS4 /// KIR3DL3 /// KIR3DL3 /// KIR3DS1 (11738374_at) / RFU C1QL1 (11718748_at) / Fold change /veh C1QL1 (11718748_at) / RFU TMPRSS4 (11747572_a_at) / Fold change /veh TMPRSS4 (11747572_a_at) / RFU HAMP (11756126_x_at) / Fold change /veh HAMP (11756126_x_at) / RFU RNFT2 (11725882_a_at) / Fold change /veh RNFT2 (11725882_a_at) / RFU NR4A2 (11747474_a_at) / Fold change /veh NR4A2 (11747474_a_at) / RFU ABCC12 (11746883_a_at) / Fold change /veh ABCC12 (11746883_a_at) / RFU TMEM136 (11760407_x_at) / Fold change /veh TMEM136 (11760407_x_at) / RFU CLDN22 /// WWC2 (11732394_at) / Fold change /veh CLDN22 /// WWC2 (11732394_at) / RFU HLA-DPB1 (11760878_x_at) / Fold change /veh HLA-DPB1 (11760878_x_at) / RFU SPINT1 (11716480_a_at) / Fold change /veh SPINT1 (11716480_a_at) / RFU GAP43 (11754022_s_at) / Fold change /veh GAP43 (11754022_s_at) / RFU A4GNT (11735810_at) / Fold change /veh A4GNT (11735810_at) / RFU PRB3 (11715151_x_at) / Fold change /veh PRB3 (11715151_x_at) / RFU TUBB4B (11761932_at) / Fold change /veh TUBB4B (11761932_at) / RFU CAPN14 (11732068_a_at) / Fold change /veh CAPN14 (11732068_a_at) / RFU TMCC2 (11721928_a_at) / Fold change /veh TMCC2 (11721928_a_at) / RFU IRGQ (11745062_a_at) / Fold change /veh IRGQ (11745062_a_at) / RFU FAM174B (11720279_a_at) / Fold change /veh FAM174B (11720279_a_at) / RFU TMPRSS4 (11748680_a_at) / Fold change /veh TMPRSS4 (11748680_a_at) / RFU FAM212B (11763350_a_at) / Fold change /veh FAM212B (11763350_a_at) / RFU PLEKHG5 (11743358_a_at) / Fold change /veh PLEKHG5 (11743358_a_at) / RFU ZSCAN30 (11745921_a_at) / Fold change /veh ZSCAN30 (11745921_a_at) / RFU CMKLR1 (11741424_a_at) / Fold change /veh CMKLR1 (11741424_a_at) / RFU LOC101060620 /// MAPK8IP1 (11723275_at) / Fold change /veh LOC101060620 /// MAPK8IP1 (11723275_at) / RFU SPTSSB (11747773_x_at) / Fold change /veh SPTSSB (11747773_x_at) / RFU PRSS12 (11739890_at) / Fold change /veh PRSS12 (11739890_at) / RFU BIN1 (11741810_x_at) / Fold change /veh BIN1 (11741810_x_at) / RFU WNT11 (11732464_a_at) / Fold change /veh WNT11 (11732464_a_at) / RFU C10orf10 (11716521_a_at) / Fold change /veh C10orf10 (11716521_a_at) / RFU C5orf56 (11738089_at) / Fold change /veh C5orf56 (11738089_at) / RFU CYB561 (11721691_x_at) / Fold change /veh CYB561 (11721691_x_at) / RFU ANKRD19P (11752326_a_at) / Fold change /veh ANKRD19P (11752326_a_at) / RFU OR2T12 /// OR2T33 /// OR2T8 (11738714_s_at) / Fold change /veh OR2T12 /// OR2T33 /// OR2T8 (11738714_s_at) / RFU VCAN (11748164_a_at) / Fold change /veh VCAN (11748164_a_at) / RFU JSRP1 (11732532_at) / Fold change /veh JSRP1 (11732532_at) / RFU KRTAP10-11 (11738290_x_at) / Fold change /veh KRTAP10-11 (11738290_x_at) / RFU MYO3A (11730013_a_at) / Fold change /veh MYO3A (11730013_a_at) / RFU EBF3 (11725865_a_at) / Fold change /veh EBF3 (11725865_a_at) / RFU CAMK2N1 (11719241_x_at) / Fold change /veh CAMK2N1 (11719241_x_at) / RFU C5orf56 (11738088_a_at) / Fold change /veh C5orf56 (11738088_a_at) / RFU OLFML3 (11715873_a_at) / Fold change /veh OLFML3 (11715873_a_at) / RFU LOC100653217 /// NTM (11731650_a_at) / Fold change /veh LOC100653217 /// NTM (11731650_a_at) / RFU MAPK11 (11762145_a_at) / Fold change /veh MAPK11 (11762145_a_at) / RFU FIZ1 (11724087_x_at) / Fold change /veh FIZ1 (11724087_x_at) / RFU OASL (11726364_x_at) / Fold change /veh OASL (11726364_x_at) / RFU SOX15 (11748057_x_at) / Fold change /veh SOX15 (11748057_x_at) / RFU CD79A (11719716_a_at) / Fold change /veh CD79A (11719716_a_at) / RFU HIST1H1D (11736915_at) / Fold change /veh HIST1H1D (11736915_at) / RFU CASKIN2 (11723855_a_at) / Fold change /veh CASKIN2 (11723855_a_at) / RFU LOC730098 (11760151_x_at) / Fold change /veh LOC730098 (11760151_x_at) / RFU OR4N2 (11742367_at) / Fold change /veh OR4N2 (11742367_at) / RFU PRRT2 (11749266_a_at) / Fold change /veh PRRT2 (11749266_a_at) / RFU SNX32 (11753110_a_at) / Fold change /veh SNX32 (11753110_a_at) / RFU CDHR5 (11726645_a_at) / Fold change /veh CDHR5 (11726645_a_at) / RFU RCAN1 (11760418_a_at) / Fold change /veh RCAN1 (11760418_a_at) / RFU FAM167A (11723789_a_at) / Fold change /veh FAM167A (11723789_a_at) / RFU FAM26E (11764081_at) / Fold change /veh FAM26E (11764081_at) / RFU ISYNA1 (11749810_s_at) / Fold change /veh ISYNA1 (11749810_s_at) / RFU ACY1 (11761880_at) / Fold change /veh ACY1 (11761880_at) / RFU 11764098_at / Fold change /veh 11764098_at / RFU SAMD14 (11745864_x_at) / Fold change /veh SAMD14 (11745864_x_at) / RFU NPB (11741838_a_at) / Fold change /veh NPB (11741838_a_at) / RFU TMPRSS6 (11731388_a_at) / Fold change /veh TMPRSS6 (11731388_a_at) / RFU KRTAP10-2 (11738614_at) / Fold change /veh KRTAP10-2 (11738614_at) / RFU ARHGAP8 /// PRR5-ARHGAP8 (11727945_x_at) / Fold change /veh ARHGAP8 /// PRR5-ARHGAP8 (11727945_x_at) / RFU KRTAP5-7 /// NADSYN1 (11734609_at) / Fold change /veh KRTAP5-7 /// NADSYN1 (11734609_at) / RFU RASL12 (11751679_a_at) / Fold change /veh RASL12 (11751679_a_at) / RFU CDKN2B (11736163_a_at) / Fold change /veh CDKN2B (11736163_a_at) / RFU PRF1 (11729649_at) / Fold change /veh PRF1 (11729649_at) / RFU, ZNF638 /// ZNF638-IT1 / Fold change vs veh, ZNF638 /// ZNF638-IT1 / RFU, PANK3 / Fold change vs veh, PANK3 / RFU, SH3YL1 / Fold change vs veh, SH3YL1 / RFU, ZEB2 / Fold change vs veh, ZEB2 / RFU, NRIP1 / Fold change vs veh, NRIP1 / RFU, PTTG1IP / Fold change vs veh, PTTG1IP / RFU, CAPN2 / Fold change vs veh, CAPN2 / RFU, MED14 / Fold change vs veh, MED14 / RFU, SNORA58 / Fold change vs veh, SNORA58 / RFU, C1orf63 / Fold change vs veh, C1orf63 / RFU, LRRFIP1 / Fold change vs veh, LRRFIP1 / RFU, NDUFAF7 / Fold change vs veh, NDUFAF7 / RFU, SLC12A2 / Fold change vs veh, SLC12A2 / RFU, IBTK / Fold change vs veh, IBTK / RFU, ESF1 / Fold change vs veh, ESF1 / Fold change vs veh, TMEM50B / RFU, TAOK1 / Fold change vs veh, TAOK1 / RFU, ACBD3 / Fold change vs veh, ACBD3 / RFU, TMA16 / Fold change vs veh, TMA16 / RFU, RWDD3 / Fold change vs veh, RWDD3 / RFU, BCAT1 / Fold change vs veh, BCAT1 / RFU, EDEM3 / Fold change vs veh, EDEM3 / RFU, TMEM33 / Fold change vs veh, TMEM33 / RFU, WDR75 / Fold change vs veh, WDR75 / RFU, AHCTF1 / Fold change vs veh, AHCTF1 / RFU, TFRC / Fold change vs veh, TFRC / RFU, ZDHHC17 / Fold change vs veh, ZDHHC17 / RFU, NOM1 / Fold change vs veh, NOM1 / RFU, ARL8B / Fold change vs veh, ARL8B / RFU, ZBTB11 / Fold change vs veh, ZBTB11 / RFU, TAMM41 / Fold change vs veh, TAMM41 / RFU, KIAA1704 /// LOC100996395 / Fold change vs veh, KIAA1704 /// LOC100996395 / RFU, ING1 / Fold change vs veh, ING1 / RFU, TRMT61B / Fold change vs veh, TRMT61B / RFU, FUBP3 / Fold change vs veh, FUBP3 / RFU, TP53 / Fold change vs veh, TP53 / RFU, TNKS2 / Fold change vs veh, TNKS2 / RFU, ZFP14 / Fold change vs veh, ZFP14 / RFU, ACTR2 / Fold change vs veh, ACTR2 / RFU, PPP3R1 / Fold change vs veh, PPP3R1 / RFU, PIK3R1 / Fold change vs veh, PIK3R1 / RFU, HNRNPA1 / Fold change vs veh, HNRNPA1 / RFU, RNF170 / Fold change vs veh, RNF170 / RFU, ZNF28 / Fold change vs veh, ZNF28 / RFU, RNGTT / Fold change vs veh, RNGTT / RFU, OGT / Fold change vs veh, OGT / RFU, BRD1 / Fold change vs veh, BRD1 / RFU, MARS / Fold change vs veh, MARS / RFU, ZNF655 / Fold change vs veh, ZNF655 / RFU, FAHD1 / Fold change vs veh, FAHD1 / RFU, BDP1 / Fold change vs veh, BDP1 / RFU, LRRCC1 / Fold change vs veh, LRRCC1 / RFU, ARID1A / Fold change vs veh, ARID1A / RFU, ZNF146 / Fold change vs veh, ZNF146 / RFU, ZNF330 / Fold change vs veh, ZNF330 / RFU, GPN3 / Fold change vs veh, GPN3 / RFU, C9orf123 / Fold change vs veh, C9orf123 / RFU, N4BP2L2 / Fold change vs veh, N4BP2L2 / RFU, ARFIP1 / Fold change vs veh, ARFIP1 / RFU, FAM179B / Fold change vs veh, FAM179B / RFU, BCL10 / Fold change vs veh, BCL10 / RFU, UHRF1BP1L / Fold change vs veh, UHRF1BP1L / RFU, BET1 / Fold change vs veh, BET1 / RFU, CNOT2 / Fold change vs veh, CNOT2 / RFU, ZNF268 / Fold change vs veh, ZNF268 / Fold change vs veh, ZNF507 / RFU, DGCR2 / Fold change vs veh, DGCR2 / RFU, WDSUB1 / Fold change vs veh, WDSUB1 / Fold change vs veh, HSP90B1 /// MIR3652 / RFU, ADSS / Fold change vs veh, ADSS / RFU, GK / Fold change vs veh, GK / RFU, ZNF148 / Fold change vs veh, ZNF148 / RFU, TAF9 / Fold change vs veh, TAF9 / RFU, SLC1A5 / Fold change vs veh, SLC1A5 / RFU, SLMO2 / Fold change vs veh, SLMO2 / RFU, ABCC4 / Fold change vs veh, ABCC4 / RFU, LOC101060439 /// RAP1B / Fold change vs veh, LOC101060439 /// RAP1B / RFU, RFX7 / Fold change vs veh, RFX7 / RFU, GTPBP10 / Fold change vs veh, GTPBP10 / RFU, CNEP1R1 / Fold change vs veh, CNEP1R1 / RFU, BIVM-ERCC5 /// ERCC5 / Fold change vs veh, BIVM-ERCC5 /// ERCC5 / RFU, ILF3 / Fold change vs veh, ILF3 / RFU 11762660_at / Fold change /veh 11762660_at / RFU VCAN (11757783_s_at) / Fold change /veh VCAN (11757783_s_at) / RFU DDX43 (11728927_at) / Fold change /veh DDX43 (11728927_at) / RFU KRT8 (11758188_x_at) / Fold change /veh KRT8 (11758188_x_at) / RFU NKD1 (11759106_at) / Fold change /veh NKD1 (11759106_at) / RFU SRD5A1 (11742802_a_at) / Fold change /veh SRD5A1 (11742802_a_at) / RFU TPSAB1 /// TPSB2 (11721975_s_at) / Fold change /veh TPSAB1 /// TPSB2 (11721975_s_at) / RFU GSTM3 (11746129_a_at) / Fold change /veh GSTM3 (11746129_a_at) / RFU IL23R (11737362_x_at) / Fold change /veh IL23R (11737362_x_at) / RFU TMEM51 (11727254_a_at) / Fold change /veh TMEM51 (11727254_a_at) / RFU PIWIL2 (11732686_x_at) / Fold change /veh PIWIL2 (11732686_x_at) / RFU ORM1 (11744905_x_at) / Fold change /veh ORM1 (11744905_x_at) / RFU CCDC152 (11743942_at) / Fold change /veh CCDC152 (11743942_at) / RFU ECM1 (11717891_a_at) / Fold change /veh ECM1 (11717891_a_at) / RFU IL23R (11748794_a_at) / Fold change /veh IL23R (11748794_a_at) / RFU TNFAIP8L3 (11732012_x_at) / Fold change /veh TNFAIP8L3 (11732012_x_at) / RFU MBOAT4 (11741988_at) / Fold change /veh MBOAT4 (11741988_at) / RFU 11764193_at / Fold change /veh 11764193_at / RFU TMEM53 (11763286_at) / Fold change /veh TMEM53 (11763286_at) / RFU MAGEB2 (11727129_at) / Fold change /veh MAGEB2 (11727129_at) / RFU TMEM200A (11744735_a_at) / Fold change /veh TMEM200A (11744735_a_at) / RFU CCDC152 (11751479_a_at) / Fold change /veh CCDC152 (11751479_a_at) / RFU FAM211A (11726209_a_at) / Fold change /veh FAM211A (11726209_a_at) / RFU RGS16 (11746705_a_at) / Fold change /veh RGS16 (11746705_a_at) / RFU VCAN (11755009_s_at) / Fold change /veh VCAN (11755009_s_at) / RFU RHOB (11743442_s_at) / Fold change /veh RHOB (11743442_s_at) / RFU RGS16 (11720943_a_at) / Fold change /veh RGS16 (11720943_a_at) / RFU RGS16 (11720944_at) / Fold change /veh RGS16 (11720944_at) / RFU, VPS4B / Fold change vs veh, VPS4B / RFU, CREB1 / Fold change vs veh, CREB1 / RFU, DNAJC13 / Fold change vs veh, DNAJC13 / RFU, GNAQ / Fold change vs veh, GNAQ / RFU, CDK5R1 / Fold change vs veh, CDK5R1 / RFU, ZRANB3 / Fold change vs veh, ZRANB3 / RFU, CUL4A / Fold change vs veh, CUL4A / RFU, CCNY / Fold change vs veh, CCNY / RFU, UFL1 / Fold change vs veh, UFL1 / RFU, COG3 / Fold change vs veh, COG3 / RFU, DIAPH2 / Fold change vs veh, DIAPH2 / RFU, SKA2 / Fold change vs veh, SKA2 / RFU, AFF3 / Fold change vs veh, AFF3 / RFU, LMF1 / Fold change vs veh, LMF1 / RFU, IPO11 / Fold change vs veh, IPO11 / RFU, DFFB / Fold change vs veh, DFFB / RFU, FOXP1 / Fold change vs veh, FOXP1 / RFU, CARD8 / Fold change vs veh, CARD8 / RFU, STRN3 / Fold change vs veh, STRN3 / RFU, ADK / Fold change vs veh, ADK / RFU, RASSF2 / Fold change vs veh, RASSF2 / RFU, WIPF1 / Fold change vs veh, WIPF1 / RFU, LARP1B / Fold change vs veh, LARP1B / RFU, RASA1 / Fold change vs veh, RASA1 / RFU, RB1 / Fold change vs veh, RB1 / RFU, PPFIA1 / Fold change vs veh, PPFIA1 / RFU, MAT2A / Fold change vs veh, MAT2A / RFU, CCT5 / Fold change vs veh, CCT5 / RFU, WDR92 / Fold change vs veh, WDR92 / RFU, CUX1 / Fold change vs veh, CUX1 / RFU, TTC7A / Fold change vs veh, TTC7A / RFU, TMEM135 / Fold change vs veh, TMEM135 / RFU, DEPTOR / Fold change vs veh, DEPTOR / RFU, CPM / Fold change vs veh, CPM / RFU, DNAJB6 / Fold change vs veh, DNAJB6 / RFU, CACNA2D3 / Fold change vs veh, CACNA2D3 / RFU, DTX4 / Fold change vs veh, DTX4 / RFU, TFCP2 / Fold change vs veh, TFCP2 / RFU, GMCL1 /// GMCL1P1 / Fold change vs veh, GMCL1 /// GMCL1P1 / RFU, AEBP2 / Fold change vs veh, AEBP2 / RFU, SNHG1 /// SNORD22 /// SNORD25 /// SNORD26 /// SNORD27 /// SNORD28 /// SNORD29 /// SNORD31 / Fold change vs veh, SNHG1 /// SNORD22 /// SNORD25 /// SNORD26 /// SNORD27 /// SNORD28 /// SNORD29 /// SNORD31 / Fold change (Aza/veh), C12orf56 (ProbeSet 11735607_a_at) / Fold change (ACY-1035/veh), C12orf56 (ProbeSet 11735607_a_at) / Fold change (Aza/veh), FGFR1OP (ProbeSet 11751329_s_at) / Fold change (ACY-1035/veh), FGFR1OP (ProbeSet 11751329_s_at) / Fold change (Aza/veh), VPS36 (ProbeSet 11739960_a_at) / Fold change (ACY-1035/veh), VPS36 (ProbeSet 11739960_a_at) / RFU SYPL1 (11715823_x_at) / Fold change /veh SYPL1 (11715823_x_at) / RFU IGFBP7 (11715501_s_at) / Fold change /veh IGFBP7 (11715501_s_at) / RFU REEP3 (11722064_at) / Fold change /veh REEP3 (11722064_at) / RFU IGLL1 (11728026_x_at) / Fold change /veh IGLL1 (11728026_x_at): dose or concentration left out as unconfirmed
Conditions: MV-4-11 cells, 48 hours

Nc1ncn([C@@H]2O[C@H](CO)[C@@H](O)[C@H]2O)c(=O)n1 [azacitidine]
RFU CNN1 (11734310_a_at): 25.48 RFU
